Data taken from patent US20120035135A1, “Treatment of Transgenic Crops with Mixtures of Fiproles and Chloronicotinyls” (Bayer CropScience AG, priority 2008, published 2012).

Legend:
Assay type in all cases: in vivo
Spodoptera frugiperda [1] = assay: Spodoptera frugiperda test (leaf application) on transgenic cotton; settings: 24 h, after 1 d
Excerpt: (§1) The expected activity for a given combination of two (or more) active compounds can be calculated (cf. COLBY, S. R.; “Calculating Synergistic and Antagonistic Responses of Herbicide Combinations”, Weeds 15, pages 20-22, 1967):′
(§2) If • X=the kill rate, expressed in % of the untreated control, when employing active compound A at an application rate of m ppm or m g/ha, • Y=the kill rate, expressed in % of the untreated control, when employing active compound B at an application rate of n ppm or n g/ha, • Z=the kill rate, expressed in % of the untreated control, when employing active compound C at an application rate of r ppm or r g/ha, • E=the kill rate, expressed in % of the untreated control, when employing active compounds A and B and C at application rates of m, n, and r ppm or m, n, and r g/ha, then for a combination of two ore more components
(§3) If the actual insecticidal kill rate is higher than the calculated one, the kill rates of the combination are super additive, i.e. a synergistic effect is present. In this case, the kill rate that is actually observed has to be higher than the value, calculated using the formula above, for the expected kill rate (E).
Transgenic cotton plants containing lepidoptera and herbicide resistance were treated with the respective products against the fall army worm (Spodoptera frugiperda).
(§4) After the specified period of time, the mortality in % is determined. 100% means that all the caterpillars have been killed; 0% means that none of the caterpillars have been killed.

Spodoptera frugiperda [2] = assay: Spodoptera frugiperda test (leaf application) on transgenic corn; settings: 96 h, after 4 d
Excerpt: as §1, §2
as §3, with “(E). […]” for “(E).”
(§5) After the specified period of time, the mortality in % is determined. […]

Spodoptera frugiperda [3] = assay: Spodoptera frugiperda test (drench application) on transgenic corn; settings: soil, 96 h, after 4 d
Excerpt: as §1, §2
as §3, with “(E). […]” for “(E).”
as §5

Spodoptera exigua = Spodoptera exigua test (leaf application) on transgenic corn; settings: 96 h, after 4 d
Excerpt: as §1, §2, §3
Transgenic corn plants containing lepidoptera, coleoptera and/or herbicide resistance were treated with the respective products against the beet army worm (Spodoptera exigua).
as §4

## CC[S+]([O-])c1c(C#N)nn(-c2c(Cl)cc(C(F)(F)F)cc2Cl)c1N (stereo not shown) [Ethiprole, ethiprole]
Spodoptera frugiperda [1]
  mortality at 20 ppm: 0%

## N#Cc1nn(-c2c(Cl)cc(C(F)(F)F)cc2Cl)c(N)c1[S+]([O-])C(F)(F)F (stereo not shown) [Fipronil, fipronil]
Spodoptera frugiperda [2]; 4 ppm
  mortality at 4 ppm: 15%
Spodoptera frugiperda [3]; 20 ppm
  mortality at 20 ppm: 0%
Spodoptera frugiperda [1]
  mortality at 20 ppm: 0%
Spodoptera exigua; 4 ppm
  mortality at 4 ppm: 0%

## O=[N+]([O-])NC1=NCCN1Cc1ccc(Cl)nc1 [Imidacloprid, imidacloprid]
Spodoptera frugiperda [2]; 100 ppm
  mortality at 100 ppm: 15%
Spodoptera frugiperda [3]; 100 ppm
  mortality at 100 ppm: 0%
Spodoptera frugiperda [1]; 100 ppm
  mortality at 100 ppm: 50%
Spodoptera exigua; 20 ppm
  mortality at 20 ppm: 0%
Spodoptera exigua; 100 ppm
  mortality at 100 ppm: 10%
